According to patent publication US10822337B2, “TGF-β inhibitorC” (Rigel Pharmaceuticals, Inc., priority 2015, dated 2020):

Columns and labels:
[1] = system: TGF-β signaling (TGF-β pSMAD, MPC-11); experiment: AlphaScreen SureFire SMAD3 (p-Ser423/425) assay, inhibition of TGF-β signaling; type: cell-based; conditions: Mus musculus, p-SMAD-3 (Ser423/425) in cell lysate after TGF-β stimulation
Excerpt: (§1) Example 2: AlphaScreen® SureFire® SMAD3 (p-Ser423/425) Assay
(§2) The p-SMAD-3 (Ser423/425) SureFire® assay has been designed to measure the phosphorylation of endogenous cellular p-SMAD-3 (Ser423/425) in cell lysates and is a system for the screening of both modulators of receptor activation (e.g. agonists and antagonists) as well as agents acting intracellularly, such as small molecule inhibitors of upstream events. The assay will measure p-SMAD-3 (Ser423/425) activation by either cloned or endogenous receptors, and can be applied to primary cells.
(§3) 1× Lysis buffer: 1 ml of 5× Lysis buffer was diluted with 4 ml of sterile water. After dilution, excess 1× Lysis buffer can be frozen and thawed up to 5 times without loss in activity.
(§4) P-SMAD-3 (Ser423/425) SureFire® Assay Protocols
(§5) Step A: Preparation of Buffers
(§6) Activation buffer: The buffer was warmed slowly to 37° C. and gently mixed to re-suspend. Activation buffer can be stored at room temperature with no loss in activity.
(§7) Reaction buffer: The buffer was kept at 4° C. while in use.
(§8) AlphaScreen® Protein A IgG Kit: The kit was stored at 4° C. in the dark.
(§9) Reaction buffer+Activation buffer+AlphaScreen® Acceptor beads: Reaction buffer (40 parts), Activation Buffer (10 parts) and Acceptor beads (1 part) were mixed and the mixture was stored at room temperature and used the same day. Mixture was added to 384-well plates; excess mixturewas discarded.
(§10) Dilution buffer+AlphaScreen® Donor beads: Dilution buffer (20 parts) and Donor beads (1 part) were mixed and the mixture was stored at room temperature and used the same day. Excess mixture was discarded.
(§11) Assay control samples: After reconstitution in 250 μl of water, lysates were at −20° C. in single use aliquots.
(§12) Step B: Preparation of Samples and Cells
(§13) 96-well Assay Protocol for 293FT and RMS13 adherent cells can be carried out manually or in high throughput with liquid handling robots.
(§14) The cells (80 μL of cells for 96 well plates) were plated in collagen coated tissue culture plates in RPMI or FreeStyle medium (Invitrogen) and incubated overnight. For manual analysis, 6 plates for GDF8, 6 plates for TGFβ, and optionally 6 plates for Alk5ca(ALKS constitutively active) were used.
(§15) The compound dilution plates were prepared as follows: 12 μL of DMSO was transferred into first column of 96-well plate, and 16 μL of DMSO was transferred into columns 2-12 of the 96-well plate. 12 μL of compound solution was transferred into first column of the DMSO-containing 96-well plate. Three-fold dilution was performed up to column 10 of the DMSO-containing 96-well plate.
(§16) Step C: Treatment and Analysis
(§17) The plate containing cells were treated with compounds for about 10 minutes, and then ligand was added. GDF8 or TGFb was added to plates to stimulate. 293FL cells were stimulatedfor 90 minutes at 37° C.; and RMS13 cells were stimulated for 60 minutes at 37° C. The medium was then removed from the cells, and 1× Lysis Buffer (about 25 μL) was added and the plate was gently agitated on plate shaker for 5-10 minutes.
(§18) The lysate (5 μL) was then placed into 384-well shallow plates avoiding the generation of bubbles. To this, the Reaction Buffer+Activation Buffer+AlphaScreen® Acceptor beadsmixture (5 μL) was added. The plate was sealed with adhesive cover and shielded from light (e.g., with metal foil), and agitated gently on plate shaker for 2 hours at room temperature.
(§19) Dilution buffer+AlphaScreen® Donor beads (2 μL) was then added, and the plate was intubated on the plate shaker for an additional 1½ hours. After completion, the plate was read on Synergy-4 or Enspire plate reader, using AlphaScreen® pSMAD3® settings.
(§20) Representative results for inhibition of GDF8 (data=GDF pSMAD (MPC11) (μM)) and TGF-β (data=TGF-β pSMAD (MPC-11) (μM)) signaling are shown in Table 1: […]

[2] = system: GDF8 signaling (GDF pSMAD, MPC11); experiment: AlphaScreen SureFire SMAD3 (p-Ser423/425) assay, inhibition of GDF8 signaling; type: cell-based; conditions: Mus musculus, MPC-11, p-SMAD-3 (Ser423/425) in cell lysate after GDF8 stimulation
Excerpt: as §1, §2, §3, §4, §5, §6, §7, §8, §9, §10, §11, §12, §13, §14, §15, §16, §17, §18, §19, §20

| Compound | IC50 [1] | IC50 [2] |
| --- | --- | --- |
| Fc1ccc(-c2nn3c(c2-c2ccc4nccnc4c2)CCC3)cc1Cl [Compound 147, 6-(2-(3-Chloro-4-fluorophenyl)-5,6-dihydro-4H-pyrrolo[1,2-b]pyrazol-3-yl)quinoxaline] | 687 nM | 204 nM |
| Fc1cc(F)c(-c2nn3c(c2-c2ccc4ncnn4c2)CCC3)cc1Cl [Compound 192, 6-(2-(5-Chloro-2,4-difluorophenyl)-5,6-dihydro-4H-pyrrolo[1,2-b]pyrazol-3-yl)-[1,2,4]triazolo[1,5-a]pyridine] | 66 nM | 43.6 nM |
| Cc1cccc(-c2nn3c(c2-c2ccc4nccnc4c2)OCC3)c1 [Compound 52, 7-(Quinoxalin-6-yl)-6-(m-tolyl)-2,3-dihydropyrazolo[5,1-b]oxazole] | 203 nM | 47.7 nM |
| Fc1ccc(-c2nn3c(c2-c2ccc4nccn4c2)CCC3)c(F)c1Cl [Compound 157, 6-(2-(3-Chloro-2,4-difluorophenyl)-5,6-dihydro-4H-pyrrolo[1,2-b]pyrazol-3-yl)imidazo[1,2-a]pyridine] | 685 nM | 133 nM |
| Clc1cccc(-c2nn3c(c2-c2ccc4nccn4c2)CCC3)c1 [Compound 25, 6-(2-(3-Chlorophenyl)-5,6-dihydro-4H-pyrrolo[1,2-b]pyrazol-3-yl)imidazo[1,2-a]pyridine] | 140 nM | 69.5 nM |
| Fc1ccc(F)c(-c2nn3c(c2-c2ccc4ncccc4c2)CCC3)c1 [Compound 196, 6-(2-(2,5-Difluorophenyl)-5,6-dihydro-4H-pyrrolo[1,2-b]pyrazol-3-yl)quinoline] | 5260 nM | 862 nM |
| Fc1ccc(-c2nn3c(c2-c2ccc4cn[nH]c4c2)CCC3)c(F)c1Cl [Compound 156, 6-(2-(3-Chloro-2,4-difluorophenyl)-5,6-dihydro-4H-pyrrolo[1,2-b]pyrazol-3-yl)-1H-indazole] | 2840 nM | 440 nM |
| Fc1c(Cl)cccc1-c1nn2c(c1-c1ccc3nccn3c1)CCC2 [Compound 139, 6-(2-(3-Chloro-2-fluorophenyl)-5,6-dihydro-4H-pyrrolo[1,2-b]pyrazol-3-yl)imidazo[1,2-a]pyridine] | 874 nM | 359 nM |
| Cc1cccc(-c2nn3c(c2-c2ccc4ncsc4c2)OCC3)c1 [Compound 39] | 175 nM | 59.6 nM |
| Cc1c(F)ccc(-c2nn3c(c2-c2ccc4nccnc4c2)CCC3)c1F [Compound 172, 6-(2-(2,4-Difluoro-3-methylphenyl)-5,6-dihydro-4H-pyrrolo[1,2-b]pyrazol-3-yl)quinoxaline] | 1780 nM | 678 nM |
| Cc1cccc(-c2nn3c(c2-c2ccc4ncn(C)c4c2)OCC3)c1 [Compound 38, 7-(1-Methyl-1H-benzo[d]imidazol-6-yl)-6-(m-tolyl)-2,3-dihydropyrazolo[5,1-b]oxazole] | 57.9 nM | 22.6 nM |
| Cc1cccc(-c2nn3c(c2-c2ccc4cn[nH]c4c2)CCC3)c1 [Compound 8, 6-(2-(m-Tolyl)-5,6-dihydro-4H-pyrrolo[1,2-b]pyrazol-3-yl)-1H-indazole] | 79.4 nM | 21.3 nM |
| Fc1cccc(-c2nn3c(c2-c2ccc4cn[nH]c4c2)CCC3)c1 [Compound 78, 6-(2-(3-Fluorophenyl)-5,6-dihydro-4H-pyrrolo[1,2-b]pyrazol-3-yl)-1H-indazole] | 2300 nM | 812 nM |
| Cc1cc(-c2nn3c(c2-c2ccc4nc[nH]c4c2)CCC3)ccc1F [Compound 9, 6-(2-(4-Fluoro-3-methylphenyl)-5,6-dihydro-4H-pyrrolo[1,2-b]pyrazol-3-yl)-1H-benzo[d]imidazole] | 152 nM | 51.5 nM |
| Cc1cc(-c2nn3c(c2-c2ccc4ncnn4c2)CCC3)c(F)cc1F [Compound 185, 6-(2-(2,4-Difluoro-5-methylphenyl)-5,6-dihydro-4H-pyrrolo[1,2-b]pyrazol-3-yl)-[1,2,4]triazolo[1,5-a]pyridine] | 69.6 nM | 38.5 nM |
| Cc1cccc(-c2nn3c(c2-c2ccc4cn[nH]c4c2)OCC3)c1 [Compound 37, 7-(1H-indazol-6-yl)-6-(m-tolyl)-2,3-dihydropyrazolo[5,1-b]oxazole] | 193 nM | 36.5 nM |
| Cc1cc(-c2nn3c(c2-c2ccc4[nH]ncc4c2)CCC3)ccc1F [Compound 2, 5-(2-(4-Fluoro-3-methylphenyl)-5,6-dihydro-4H-pyrrolo[1,2-b]pyrazol-3-yl)-1H-indazole] | 140 nM | 45 nM |
| Cn1cnc2ccc(-c3c(-c4cc(F)c(F)cc4F)nn4c3CCC4)cc21 [Compound 114, 1-Methyl-6-(2-(2,4,5-trifluorophenyl)-5,6-dihydro-4H-pyrrolo[1,2-b]pyrazol-3-yl)-1H-benzo[d]imidazole] | 87.6 nM | 24 nM |
| Fc1ccc(-c2nn3c(c2-c2ccc4nccn4c2)CCC3)cc1 [Compound 19, 6-(2-(4-Fluorophenyl)-5,6-dihydro-4H-pyrrolo[1,2-b]pyrazol-3-yl)imidazo[1,2-a]pyridine] | 1770 nM | 309 nM |
| Fc1ccc(-c2nn3c(c2-c2ccc4ncccc4c2)CCC3)cc1F [Compound 88, 6-(2-(3,4-Difluorophenyl)-5,6-dihydro-4H-pyrrolo[1,2-b]pyrazol-3-yl)quinoline] | 9580 nM | 1060 nM |
| Fc1ccc(F)c(-c2nn3c(c2-c2ccc4cn[nH]c4c2)CCC3)c1 [Compound 193, 6-(2-(2,5-Difluorophenyl)-5,6-dihydro-4H-pyrrolo[1,2-b]pyrazol-3-yl)-1H-indazole] | 2590 nM | 371 nM |
| COCCOc1cnc2ccc(-c3c(-c4cc(F)ccc4F)nn4c3CCC4)cc2n1 [Compound 200, 7-(2-(2,5-difluorophenyl)-5,6-dihydro-4H-pyrrolo[1,2-b]pyrazol-3-yl)-2-(2-methoxyethoxy)quinoxaline] | 952 nM | 274 nM |
| Fc1ccc(-c2nn3c(c2-c2ccc4ncsc4c2)CCC3)cc1Cl [Compound 145, 6-(2-(3-Chloro-4-fluorophenyl)-5,6-dihydro-4H-pyrrolo[1,2-b]pyrazol-3-yl)benzo[d]thiazole] | 572 nM | 194 nM |
| Fc1ccc(-c2nn3c(c2-c2ccc4ncnn4c2)CCC3)c(F)c1Cl [Compound 160, 6-(2-(3-Chloro-2,4-difluorophenyl)-5,6-dihydro-4H-pyrrolo[1,2-b]pyrazol-3-yl)-[1,2,4]triazolo[1,5-a]pyridine] | 738 nM | 296 nM |
| Fc1ccc(-c2nn3c(c2-c2ccc4[nH]ncc4c2)CCC3)cc1F [Compound 83, 5-(2-(3,4-Difluorophenyl)-5,6-dihydro-4H-pyrrolo[1,2-b]pyrazol-3-yl)-1H-indazole] | 517 nM | 70.4 nM |
| Cn1cnc2ccc(-c3c(-c4ccc(F)cc4)nn4c3CCC4)cc21 [Compound 13, 6-(2-(4-Fluorophenyl)-5,6-dihydro-4H-pyrrolo[1,2-b]pyrazol-3-yl)-1-methyl-1H-benzo[d]imidazole] | 182 nM | 79.6 nM |
| Cc1cccc(-c2nn3c(c2-c2ccc4nccn4c2)CCC3)c1 [Compound 18, 6-(2-(m-Tolyl)-5,6-dihydro-4H-pyrrolo[1,2-b]pyrazol-3-yl)imidazo[1,2-a]pyridine] | 369 nM | 65 nM |
| COc1ccc(-c2nn3c(c2-c2ccc4ncccc4c2)CCC3)cc1 [Compound 101, 6-(2-(4-Methoxyphenyl)-5,6-dihydro-4H-pyrrolo[1,2-b]pyrazol-3-yl)quinoline] | – | 2450 nM |
